Results from the supplement of paper PMC8960247.
± gives the standard error.

Assays:
621-103 (TSC2-rescued) = experiment: relative viability vs DMSO; higher = less cytotoxic; settings: serum: 10% FBS, 72 h
621-102 (TSC2-deficient) = experiment: as above; settings: serum: 10% FBS, 72 h
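Also: immortalized renal angiomyolipoma cells stably carrying empty vector or TSC2, dosed in 384-well plates in DMEM, viability normalized to vehicle-treated wells within each plate.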

Compound	relative viability (621-103 (TSC2-rescued); 0.0001 µM)	relative viability (621-103 (TSC2-rescued); 0.001 µM)	relative viability (621-103 (TSC2-rescued); 0.01 µM)	relative viability (621-103 (TSC2-rescued); 0.1 µM)	relative viability (621-103 (TSC2-rescued); 1 µM)	relative viability (621-103 (TSC2-rescued); 10 µM)	relative viability (621-102 (TSC2-deficient); 0.0001 µM)	relative viability (621-102 (TSC2-deficient); 0.001 µM)	relative viability (621-102 (TSC2-deficient); 0.01 µM)	relative viability (621-102 (TSC2-deficient); 0.1 µM)	relative viability (621-102 (TSC2-deficient); 1 µM)	relative viability (621-102 (TSC2-deficient); 10 µM)
COc1ccc2c3n(c(=NC(=O)c4cccnc4)nc2c1OC)CCN3 [PIK-90]	99 ± 1.5%	99.75 ± 0.35%	97.73 ± 0.84%	97.82 ± 0.96%	97.97 ± 0.66%	73.4 ± 6.5%	85.1 ± 3.9%	107 ± 4.7%	110 ± 2.5%	112 ± 1.5%	110 ± 1.3%	96.7 ± 1.5%
CC(=O)Nc1nc(C)c(-c2ccc(Cl)c(S(=O)(=O)NCCO)c2)s1 [PIK-93]	102.7 ± 0.19%	102 ± 1.3%	98.7 ± 1.2%	100.8 ± 1%	102 ± 1.7%	74.3 ± 1.8%	94.69 ± 0.6%	106 ± 2.8%	115 ± 0.89%	112 ± 3.2%	113.97 ± 0.11%	82.8 ± 0.53%
Cc1ccccc1-n1c(Cn2ncc3c(N)ncnc32)nc2cccc(C)c2c1=O [PIK-293]	99.57 ± 0.92%	99.6 ± 1.1%	98.74 ± 0.94%	98.35 ± 0.28%	98.9 ± 1.9%	94.1 ± 1.5%	75.5 ± 1.2%	114 ± 4.8%	108 ± 1.3%	118.8 ± 0.73%	111.4 ± 0.27%	108 ± 5.3%
CN(C)C1CCN(C(=O)c2ccc(NC(=O)Nc3ccc(-c4nc(N5CCOCC5)nc(N5CCOCC5)n4)cc3)cc2)CC1 [PKI-587]	72.6 ± 3.4%	49.4 ± 3%	44.8 ± 2.2%	33.8 ± 1.2%	26.61 ± 0.072%	19.91 ± 0.074%	52.3 ± 1.3%	38.71 ± 0.29%	29.8 ± 0.13%	22.16 ± 0.12%	17.8 ± 0.79%	13.3 ± 0.47%
CCCS(=O)(=O)Nc1ccc(F)c(C(=O)c2c[nH]c3ncc(Cl)cc23)c1F [PLX-4720]	102 ± 2.3%	100.7 ± 0.75%	99.2 ± 1.6%	99.5 ± 1.8%	99.18 ± 0.44%	103.4 ± 0.45%	108 ± 2.7%	111 ± 4.3%	107 ± 4.4%	99.7 ± 4.8%	101 ± 3.2%	101 ± 1.9%
CC(C)n1nc(-c2cc3cc(O)ccc3[nH]2)c2c(N)ncnc21 [PP242]	107 ± 6.5%	107.2 ± 0.94%	103 ± 2.7%	80.1 ± 1.7%	38 ± 0.41%	23.13 ± 0.076%	93.3 ± 6.1%	95.7 ± 2.2%	103 ± 2%	101.44 ± 0.046%	46 ± 1.6%	16.86 ± 0.071%
Nc1ncnc2c1c(-c1cnc3[nH]ccc3c1)nn2C1CCCC1 [PP-121]	104.1 ± 0.76%	103 ± 2.2%	99.74 ± 0.75%	86.8 ± 3.6%	41.5 ± 1.9%	10.2 ± 0.22%	102 ± 4.8%	97.7 ± 2.4%	89.2 ± 0.2%	85 ± 1.9%	56.4 ± 0.66%	5.4 ± 0.81%
CC(=O)O[C@H]1C(=O)[C@@]2(C)[C@H]([C@H](OC(=O)c3ccccc3)[C@]3(O)C[C@H](OC(=O)[C@H](O)[C@@H](NC(=O)c4ccccc4)c4ccccc4)C(C)=C1C3(C)C)[C@]1(OC(C)=O)CO[C@@H]1C[C@@H]2O [Paclitaxel]	69 ± 1.5%	59.3 ± 0.96%	40.8 ± 0.42%	34.5 ± 0.39%	28.7 ± 0.81%	42.3 ± 0.75%	54.2 ± 1.8%	46.8 ± 2.3%	33.66 ± 0.22%	33.1 ± 0.46%	29.6 ± 1.3%	31.1 ± 2.3%
CC(=O)O[C@H]1C[C@@H]2CC[C@@H]3[C@H](CC[C@@]4(C)[C@H]3C[C@H]([N+]3(C)CCCCC3)[C@@H]4OC(C)=O)[C@@]2(C)C[C@@H]1[N+]1(C)CCCCC1 [Pancuronium bromide]	97.7 ± 0.99%	104 ± 1.3%	101 ± 2.5%	95 ± 3.6%	93.8 ± 4.2%	51.35 ± 0.38%	83.8 ± 6.4%	95.36 ± 0.26%	93.6 ± 3.5%	91.4 ± 3.3%	84.1 ± 1.2%	52.5 ± 0.78%
